# From US12404241B2 (Celgene Corporation, priority 2018, dated 2025)
# Where a name gives a salt, the structure may show the parent alone.
# Molecular target: T1, AR (Homo sapiens, UniProt P10275)
# T1 construct: endogenous in cells; host or cells: VCaP cells
# T1 sequence (P10275 1-920): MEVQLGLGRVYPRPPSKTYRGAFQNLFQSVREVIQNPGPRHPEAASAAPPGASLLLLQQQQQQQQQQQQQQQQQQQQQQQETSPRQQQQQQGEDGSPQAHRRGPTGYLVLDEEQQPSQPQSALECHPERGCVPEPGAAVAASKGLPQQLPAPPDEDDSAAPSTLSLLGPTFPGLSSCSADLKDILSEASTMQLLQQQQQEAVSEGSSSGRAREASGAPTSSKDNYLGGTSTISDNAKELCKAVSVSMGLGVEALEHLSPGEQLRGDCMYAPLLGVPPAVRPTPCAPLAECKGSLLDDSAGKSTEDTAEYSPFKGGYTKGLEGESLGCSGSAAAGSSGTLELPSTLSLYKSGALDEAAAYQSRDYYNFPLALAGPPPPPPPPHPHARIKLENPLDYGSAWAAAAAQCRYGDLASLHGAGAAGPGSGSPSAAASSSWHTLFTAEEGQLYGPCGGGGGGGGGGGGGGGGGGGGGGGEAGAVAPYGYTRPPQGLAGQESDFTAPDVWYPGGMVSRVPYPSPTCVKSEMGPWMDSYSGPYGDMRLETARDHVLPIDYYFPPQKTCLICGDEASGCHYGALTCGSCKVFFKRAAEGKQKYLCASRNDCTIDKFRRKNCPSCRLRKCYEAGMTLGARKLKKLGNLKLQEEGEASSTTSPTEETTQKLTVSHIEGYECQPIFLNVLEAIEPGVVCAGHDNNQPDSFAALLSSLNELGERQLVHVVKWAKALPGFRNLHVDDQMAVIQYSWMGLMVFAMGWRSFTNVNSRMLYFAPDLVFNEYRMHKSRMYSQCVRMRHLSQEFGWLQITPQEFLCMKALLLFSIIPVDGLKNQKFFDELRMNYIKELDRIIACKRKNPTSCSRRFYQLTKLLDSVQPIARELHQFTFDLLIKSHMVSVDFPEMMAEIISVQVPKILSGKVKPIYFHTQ
# Assay: VCAP AR Degradation Assay
# Format: cell-based
# Settings: for Y (AR degradation efficiency, % of DMSO control): class symbols *; for DC50: class symbols A-C, read-out: DC50
# Summary of the method: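 AR protein in lysates quantified by sandwich ELISA after 24 h exposure of VCaP cells at 37 °C to 10 concentrations (1:3 steps, 5 μM top, final). Four-parameter logistic fit of percent-of-DMSO levels gave DC50 (50% degradation), EC50 and minimal AR level Y.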
"Y (AR degradation efficiency, % of DMSO control)",DC50 [nM],SMILES
* (0<Y<=25%),100 to 500,"CC(C)c1cc(N2C(=S)N(c3cnc(C#N)c(C(F)(F)F)c3)C(=O)C2(C)C)ccc1OCCN1C[C@@H](C)N(CC(=O)Nc2cc(Cl)cc(NC3CCC(=O)NC3=O)c2)C[C@H]1C (stereo partly drawn) [Example 185, N-(3-chloro-5-(2,6-dioxopiperidin-3-ylamino)phenyl)-2-((2R,5R)-4-(2-(4-(3-(6-cyano-5-(trifluoromethyl)pyridin-3-yl)-5,5-dimethyl-4-oxo-2-thioxoimidazolidin-1-yl)-2-isopropylphenoxy)ethyl)-2,5-dimethylpiperazin-1-yl)acetamide]"
* (0<Y<=25%),< 100,"CCc1cc(N2C(=S)N(c3cnc(C#N)c(C(F)(F)F)c3)C(=O)C2(C)C)ccc1OCCN1CCN(CC(=O)Nc2cccc(NC3CCC(=O)NC3=O)c2)[C@H](C)C1 (stereo partly drawn) [Example 81, 2-((R)-4-(2-(4-(3-(6-cyano-5-(trifluoromethyl)pyridin-3-yl)-5,5-dimethyl-4-oxo-2-thioxoimidazolidin-1-yl)-2-ethylphenoxy)ethyl)-2-methylpiperazin-1-yl)-N-(3-(2,6-dioxopiperidin-3-ylamino)phenyl)acetamide]"
** (25%<Y<=35%),< 100,N#Cc1ncc(N2C(=O)C3(CCC3)N(c3ccc(OCCN4CCN(CC(=O)Nc5cccc(NC6CCC(=O)NC6=O)c5)CC4)c(F)c3)C2=S)cc1C(F)(F)F (centres unmarked) [Example 6]
* (0<Y<=25%),< 100,"C[C@@H]1CN(CCOc2ccc(N3C(=S)N(c4cnc(C#N)c(C(F)(F)F)c4)C(=O)C34CCC4)cc2C2CC2)C[C@H](C)N1CC(=O)Nc1cc(Cl)cc(NC2CCC(=O)NC2=O)c1 (stereo partly drawn) [Example 215, N-(3-chloro-5-(2,6-dioxopiperidin-3-ylamino)phenyl)-2-((2S,6R)-4-(2-(4-(7-(6-cyano-5-(trifluoromethyl)pyridin-3-yl)-8-oxo-6-thioxo-5,7-diazaspiro[3.4]octan-5-yl)-2-cyclopropylphenoxy)ethyl)-2,6-dimethylpiperazin-1-yl)acetamide]"
* (0<Y<=25%),< 100,"CC1(C)C(=O)N(c2cnc(C#N)c(C(F)(F)F)c2)C(=S)N1c1ccc(OCCN2CCN(CC(=O)Nc3cccc(NC4CCC(=O)NC4=O)c3)[C@H](C(F)(F)F)C2)c(C2CC2)c1 (stereo partly drawn) [Example 233, 2-((S)-4-(2-(4-(3-(6-cyano-5-(trifluoromethyl)pyridin-3-yl)-5,5-dimethyl-4-oxo-2-thioxoimidazolidin-1-yl)-2-cyclopropylphenoxy)ethyl)-2-(trifluoromethyl)piperazin-1-yl)-N-(3-(2,6-dioxopiperidin-3-ylamino)phenyl)acetamide]"
* (0<Y<=25%),< 100,"C[C@@H]1CN(CCOc2ccc(N3C(=S)N(c4cnc(C#N)c(C(F)(F)F)c4)C(=O)C3(C)C)cc2C2CC2)C[C@H](C)N1CC(=O)Nc1cccc(NC2CCC(=O)NC2=O)c1 (stereo partly drawn) [Example 235, 2-((2S,6R)-4-(2-(4-(3-(6-cyano-5-(trifluoromethyl)pyridin-3-yl)-5,5-dimethyl-4-oxo-2-thioxoimidazolidin-1-yl)-2-cyclopropylphenoxy)ethyl)-2,6-dimethylpiperazin-1-yl)-N-(3-(2,6-dioxopiperidin-3-ylamino)phenyl)acetamide]"
* (0<Y<=25%),< 100,"CCc1cc(N2C(=S)N(c3cnc(C#N)c(C(F)(F)F)c3)C(=O)C2(C)C)ccc1OCCN1CCN(CC(=O)Nc2cccc(NC3CCC(=O)NC3=O)c2)C2(CC2)C1 (centres unmarked) [Example 99, 2-(7-(2-(4-(3-(6-cyano-5-(trifluoromethyl)pyridin-3-yl)-5,5-dimethyl-4-oxo-2-thioxoimidazolidin-1-yl)-2-ethylphenoxy)ethyl)-4,7-diazaspiro[2.5]octan-4-yl)-N-(3-(2,6-dioxopiperidin-3-ylamino)phenyl)acetamide]"

# Further lines, the molecule ahead of its results:
SMILES,"Y (AR degradation efficiency, % of DMSO control)",DC50 [nM]
"C[C@@H]1CN(CCOc2ncc(N3C(=S)N(c4ccc(C#N)c(C(F)(F)F)c4)C(=O)C3(C)C)cc2C2CC2)C[C@H](C)N1CC(=O)Nc1cccc(NC2CCC(=O)NC2=O)c1 (stereo partly drawn) [Example 228, 2-((2S,6R)-4-(2-(5-(3-(4-cyano-3-(trifluoromethyl)phenyl)-5,5-dimethyl-4-oxo-2-thioxoimidazolidin-1-yl)-3-cyclopropylpyridin-2-yloxy)ethyl)-2,6-dimethylpiperazin-1-yl)-N-(3-(2,6-dioxopiperidin-3-ylamino)phenyl)acetamide]",* (0<Y<=25%),< 100
"CCc1cc(N2C(=S)N(c3ccc(C#N)c(C(F)(F)F)c3)C(=O)C2(C)C)ccc1OCCN1CCN(C2(C(=O)Nc3cccc(NC4CCC(=O)NC4=O)c3)CC2)CC1 (centres unmarked) [Example 139, 1-(4-(2-(4-(3-(4-cyano-3-(trifluoromethyl)phenyl)-5,5-dimethyl-4-oxo-2-thioxoimidazolidin-1-yl)-2-ethylphenoxy)ethyl)piperazin-1-yl)-N-(3-(2,6-dioxopiperidin-3-ylamino)phenyl)cyclopropanecarboxamide]",* (0<Y<=25%),< 100
"CC(C)c1cc(N2C(=S)N(c3ccc(C#N)c(C(F)(F)F)c3)C(=O)C2(C)C)ccc1OCCN1C[C@@H](C)N(CC(=O)Nc2cc(NC3CCC(=O)NC3=O)ccc2F)[C@@H](C)C1 (stereo partly drawn) [Example 217, 2-((2S,6R)-4-(2-(4-(3-(4-cyano-3-(trifluoromethyl)phenyl)-5,5-dimethyl-4-oxo-2-thioxoimidazolidin-1-yl)-2-isopropylphenoxy)ethyl)-2,6-dimethylpiperazin-1-yl)-N-(5-(2,6-dioxopiperidin-3-ylamino)-2-fluorophenyl)acetamide]",* (0<Y<=25%),500 to 1000
"CC1(C)C(=O)N(c2ccc(C#N)c(C(F)(F)F)c2)C(=S)N1c1ccc(OCCN2CCN(CC(=O)Nc3cc(F)cc(NC4CCC(=O)NC4=O)c3)CC2)c(F)c1 (centres unmarked) [Example 19, formate]",* (0<Y<=25%),< 100
"C[C@@H]1CN(CC(=O)Nc2cccc(NC3CCC(=O)NC3=O)c2)[C@H](C)CN1CCOc1ccc(N2C(=S)N(c3ccc(C#N)c(Cl)c3)C(=O)C2(C)C)cc1C1CC1 (stereo partly drawn) [Example 205, 2-((2R,5R)-4-(2-(4-(3-(3-chloro-4-cyanophenyl)-5,5-dimethyl-4-oxo-2-thioxoimidazolidin-1-yl)-2-cyclopropylphenoxy)ethyl)-2,5-dimethylpiperazin-1-yl)-N-(3-(2,6-dioxopiperidin-3-ylamino)phenyl)acetamide]",* (0<Y<=25%),< 100
"CCc1cc(N2C(=S)N(c3ccc(C#N)c(C(F)(F)F)c3)C(=O)C2(C)C)ccc1CCCN1C[C@@H](C)N(CC(=O)Nc2cccc(NC3CCC(=O)NC3=O)c2)C[C@H]1C (stereo partly drawn) [Example 273, 2-((2R,5R)-4-(3-(4-(3-(4-cyano-3-(trifluoromethyl)phenyl)-5,5-dimethyl-4-oxo-2-thioxoimidazolidin-1-yl)-2-ethylphenyl)propyl)-2,5-dimethylpiperazin-1-yl)-N-(3-(2,6-dioxopiperidin-3-ylamino)phenyl)acetamide]",* (0<Y<=25%),< 100
